Data from paper PMC11206507, “Unraveling the Impact of Six Pentacyclic Triterpenes Regulating Metabolic Pathways on Lung Carcinoma Cells” (Pharmaceuticals, 2024).

Legend:
A549 cells [1] = assay: Total ROS production assay (DCF); type: cell-based, human; details: A549, IC25 (CisPt 25 μM), 24 h
Method: The production of total ROS was determined using the 2′,7′-dichlorodihydrofluorescein diacetate (DCF) fluorescent dye. A549 cells were seeded in a concentration of 1 × 10^5 cells/mL into black 96-well plates with a clear bottom. After 24 h, the cells were incubated with the triterpenes (IC25) and controls for 24 h. Then, 50 μL of DCF (10 μM) was added to each well and they were incubated for 1 h at room temperature. Then, the fluorescence of each well was measured (Ex/Em = 485/530 nm) in the Tecan® M200 plate reader.
This experiment was performed in triplicate. All data were expressed by plotting the values as an average of three measurements for each treatment condition as the mean ± SD and analyzed with the software GraphPad Prism 9. Statistical analysis was performed using one-way analysis of variance (ANOVA) to compare the mean value of each treated type of cells versus the control (untreated cells). The statistical significance defined by the software for p values was **** < 0.0001, *** from 0.001 to 0.0001, ** from 0.001 to 0.01, * from 0.01 to 0.05, and non-significant (ns) ≥ 0.05.

A549 cells [2] = assay: Mitochondrial ROS production assay (DHE, flow cytometry); type: cell-based, human; details: A549, IC25, 24 h; for Amount of mROS, on average of the three named triterpenes, compared to the untreated cells: group average
Method: We used flow cytometry to analyze several cellular mechanistic pathways in A549 cells after incubation with the triterpenes. In general, the cells were seeded in a 6-well plate at a density of 1 × 10^6 cells/mL and incubated for 24 h in supplemented DMEM. After 24 h, the A549 cells were treated with the triterpenes, following each manufacturer’s protocol. All of the following experiments were performed in a Muse® Cell Analyzer (EMD Millipore Corporation, Temecula, CA). The instrument was calibrated before each assay using the Muse® System Check Kit (Luminex MCH100101, Luminex Corporation). Each assay was run at least in two independent experiments. For each experiment, all samples were analyzed in triplicate in the instrument and the capillary line was washed after each sample run to avoid artifacts. In addition, to address the issue of cell doublets, we used the Muse® Cell Dispersal Reagent (Luminex Corporation) in all experiments. The concentration of the triterpenes in each assay was selected depending on the cellular concentration necessary to generate the gain signal in the instrument. This means that we attempted to select concentrations avoiding excessive cytotoxicity to accurately determine the respective signal from each assay.
The production of reactive oxygen species (ROS) by mitochondria was determined using the Oxidative Stress Kit (Luminex MCH100111, Luminex Corporation). After the A549 cells were treated with the triterpenes (IC25) for 24 h, the cells were scraped and centrifuged. For ROS, the cell pellet was incubated with dihydroethidium (DHE) dye for 1 h at 37 °C.

STAT3 gene = assay: RT-qPCR gene expression of STAT3; type: cell-based, human; details: A549, IC25, 24 h
Method: (§1) A549 cells were seeded into 6-well plates at a density of 1 × 10^6 cells/mL in supplemented DMEM. The cells were incubated with the triterpenes (IC25) for 24 h. Total RNA was extracted from the cells using the TRIzol reagent (Invitrogen Corporation, Carlsbad, CA, USA) according to the manufacturer’s instructions. The purity and concentration of RNA were assessed using a NanoDrop spectrophotometer (Thermo Fisher Scientific). cDNA was synthesized using the High-Capacity cDNA Reverse Transcription Kit (Applied Biosystems) according to the manufacturer’s instructions.
(§2) RT-qPCR was performed on a StepOnePlus® Real-Time PCR System (Thermo Fisher Scientific) using TaqMan Gene Expression Assays (Applied Biosystems) for PDL1 (CD274; Assay ID: Hs01125297_m1), ribonucleotide reductase (RR) M1 (Assay ID: Hs01040697_m1), and STAT3 (Assay ID: Hs01047586_g1). Each reaction consisted of 10 ng of cDNA, TaqMan Gene Expression Master Mix (Applied Biosystems), and TaqMan probes. The PCR cycling conditions were as follows: 95 °C for 10 min, followed by 40 cycles of 95 °C for 15 s and 60 °C for 60 s. The relative gene expression levels were calculated using the ΔΔCt method. GAPDH (Assay ID: Hs02758991_g1) was used as the endogenous control for normalization.
(§3) All RT-qPCR experiments were performed at least in triplicate. All data were expressed by plotting values with an average of four measurements for each treatment condition as the mean ± SD and analyzed with the software GraphPad Prism 9. Statistical analysis was performed using one-way analysis of variance (ANOVA) to compare the mean value of each treated type of cells versus the control (untreated cells). The statistical significance defined by the software for p values was **** < 0.0001, *** from 0.001 to 0.0001, ** from 0.001 to 0.01, * from 0.01 to 0.05, and non-significant (ns) ≥ 0.05.

PDL1 gene = assay: RT-qPCR gene expression of PDL1; type: cell-based, human; details: for PDL1 gene expression (in words): A549, IC25 (CisPt 25 μM), 24 h
Method: as §1, §2, §3

[3] = MTS/PMS cell viability, MRC5; type: cell-based; details: human, MRC5 normal lung fibroblast cells
Method: The 50% inhibitory concentration (IC50) of some of these triterpenes in A549 NSCLC cells were previously determined by us. A similar procedure was performed to determine the IC50 of the triterpenes in a normal lung fibroblast cell line (MRC5). In brief, the A549 and MRC5 cells were seeded into 96-well plates at a density of 1 × 10^5 cells/mL in supplemented DMEM medium. The cells were treated with specific concentrations (A549: 5, 10, 25, 50, 75, 100, 125,150, 175, 200 μM; MRC5: 5, 10, 25, 50, 75, 100 μM) of the triterpenes and incubated for 24 h. Then, 10 uL of the MTS reagent from the CellTiter 96® Aqueous Non-Radioactive Cell Proliferation Assay (Promega G5421) was added to each well. Then, we incubated the plates at 37 °C and in a 5% CO2 atmosphere for 1 h. After incubation, the absorbance was measured at 492 nm (n = 8) in a microplate reader spectrophotometer (Thermoscientific Multiskan FC). The cell viability was calculated as follows:% Viability = (sample absorbance − sample media absorbance)/(untreated cells’ absorbance − untreated cells’ media absorbance) × 100
The cell viability data were presented by plotting the values with an average of eight measurements for each treatment (mean ± SD) in at least three independent experiments. The IC50 values were calculated with the GraphPad Prism 9 software (Prism 9; GraphPad by Dotmatics, San Diego, CA, USA) using the dose–response curve. The data were normalized by the non-linear fit of the log (drug inhibition) vs. normalized response variable slope to obtain the best fit IC50 and R-squared values.

Q: Which “Total ROS production (in words)” value (A549 cells [1]) does the source give for C=C(C)[C@@H]1CC[C@]2(C(=O)O)CC[C@]3(C)[C@H](CC[C@@H]4[C@@]5(C)CC[C@H](O)C(C)(C)[C@@H]5CC[C@]43C)[C@@H]12 [BeA, betulinic acid] here?
A: highest increase in total ROS

Q: What about the “mROS production (in words)” value (A549 cells [2]; vs negative control) of the same compound?
A: largest level of mROS

Q: What about the “Amount of mROS, on average of the three named triterpenes, compared to the untreated cells” value (A549 cells [2]) of the same compound?
A: 26.2%

Q: And the “STAT3 gene expression (in words)” value (STAT3 gene)?
A: superior in suppressing both genes

Q: And the “PDL1 gene expression (in words)” value (PDL1 gene)?
A: superior in suppressing both genes

Q: What about the IC50 at 24 h [3] of the same compound?
A: 19 ± 0.4 µM

Q: Which results are given for C=C(C)[C@@H]1CC[C@]2(CO)CC[C@]3(C)[C@H](CC[C@@H]4[C@@]5(C)CC[C@H](O)C(C)(C)[C@@H]5CC[C@]43C)[C@@H]12 [Betu, betulin]?
A: PDL1 gene expression (in words) (PDL1 gene): did not inhibit; PDL1 downregulation (PDL1 gene; summary, NSCLC A549 cells): -; IC50 at 24 h [3]: 16 ± 0.5 µM

Q: What does the source list for C=C(C)[C@@H]1CC[C@]2(C)CC[C@]3(C)[C@H](CC[C@@H]4[C@@]5(C)CC[C@H](O)C(C)(C)[C@@H]5CC[C@]43C)[C@@H]12 [Lupe, lupeol]?
A: Amount of mROS, on average of the three named triterpenes, compared to the untreated cells (A549 cells [2]): 26.2%; IC50 at 24 h [3]: 101 ± 8 µM

Q: For C[C@H]1[C@H](C)CC[C@]2(C(=O)O)CC[C@]3(C)C(=CC[C@@H]4[C@@]5(C)CC[C@H](O)C(C)(C)[C@@H]5CC[C@]43C)[C@H]12 [UrA, ursolic acid], which IC50 at 24 h [3] is on record?
A: 13 ± 1 µM
